ChEMBL document CHEMBL1126778, “Adenosine A1 antagonists. 3. Structure-activity relationships on amelioration against scopolamine- or N6-((R)-phenylisopropyl)adenosine-induced cognitive disturbance” (J Med Chem, 1993)
Values joined by “and” are separate entries in the source; they are usually repeats but may differ in a detail not shown here. Equal values may be shown once.

Tests used:
[1] = system: Mus musculus; assay: Acquisition time in (R)-PIA) induced avoidance test (performed in mice) for antagonistic activity after peroral administration of 0.08 mg/kg; type: functional; details: route oral
[2] = system: Mus musculus; assay: Acquisition time in (R)-PIA) induced avoidance test (performed in mice) for antagonistic activity after p.o. administration of 0.31 mg/kg; type: functional; details: route oral
[3] = system: Mus musculus; assay: Acquisition time in (R)-PIA) induced avoidance test (performed in mice) for antagonistic activity after p.o. administration of 1.25 mg/kg; type: functional; details: route oral
[4] = system: Mus musculus; assay: Retention time in (R)-PIA) induced avoidance test (performed in mice) for antagonistic activity after p.o. administration of 1.25 mg/kg; type: functional, organism-based; parameters: dose 1.25 mg/kg
[5] = system: Mus musculus; assay: Retention time in (R)-PIA) induced avoidance test (performed in mice) for antagonistic activity after peroral administration of 5 mg/kg; type: functional, organism-based; parameters: dose 5 mg/kg
[6] = system: Mus musculus; assay: Retention time in (R)-PIA) induced avoidance test (performed in mice) for antagonistic activity after peroral administration of 0.08 mg/kg; type: functional, organism-based; parameters: dose 0.08 mg/kg
[7] = system: Mus musculus; assay: Retention time in (R)-PIA) induced avoidance test (performed in mice) for antagonistic activity after peroral administration of 0.31 mg/kg; type: functional, organism-based; parameters: dose 0.31 mg/kg
[8] = system: Rattus norvegicus; assay: Acquisition time in Scopolamine induced avoidance test (performed in rat) for antagonistic activity after peroral administration of 1.25 mg/kg; type: functional; details: route oral
[9] = system: Rattus norvegicus; assay: Acquisition time in Scopolamine induced avoidance test (performed in rat) for antagonistic activity after peroral administration of 20 mg/kg; type: functional; details: route oral
[10] = system: Rattus norvegicus; assay: Acquisition time in Scopolamine induced avoidance test (performed in rat) for antagonistic activity after p.o. administration of 0.08 mg/kg; type: functional; details: route oral
[11] = system: Rattus norvegicus; assay: Acquisition time in Scopolamine induced avoidance test (performed in rat) for antagonistic activity after p.o. administration of 0.31 mg/kg; type: functional; details: route oral
[12] = system: Rattus norvegicus; assay: Acquisition time in Scopolamine induced avoidance test (performed in rat) for antagonistic activity after p.o. administration of 5 mg/kg; type: functional; details: route oral
[13] = system: Rattus norvegicus; assay: Retention time in Scopolamine induced avoidance test (performed in […]) for antagonistic activity after peroral administration of 5 mg/kg; type: functional, organism-based; parameters: dose 5 mg/kg
[14] = system: Rattus norvegicus; assay: Retention time in Scopolamine induced avoidance test (performed in rat) for antagonistic activity after p.o. administration of 0.08 mg/kg; type: functional, organism-based; parameters: dose 0.08 mg/kg
[15] = system: Rattus norvegicus; assay: Retention time in Scopolamine induced avoidance test (performed in rat) for antagonistic activity after p.o. administration of 0.31 mg/kg; type: functional, organism-based; parameters: dose 0.31 mg/kg
[16] = system: Rattus norvegicus; assay: Retention time in Scopolamine induced avoidance test (performed in rat) for antagonistic activity after peroral administration of 1.25 mg/kg; type: functional, organism-based; parameters: dose 1.25 mg/kg
[17] = system: Rattus norvegicus; assay: Retention time in Scopolamine induced avoidance test (performed in rat) for antagonistic activity after peroral administration of 20 mg/kg; type: functional, organism-based; parameters: dose 20 mg/kg
[18] = system: Mus musculus; assay: Acquisition time in (R)-PIA) induced avoidance test (performed in mice) for antagonistic activity after peroral administration of 5 mg/kg; type: functional; details: route oral
[19] = system: Mus musculus; assay: Retention time in (R)-PIA) induced avoidance test (performed in mice) for antagonistic activity after peroral administration of 0.02 mg/kg
[20] = system: Mus musculus; assay: Acquisition time in (R)-PIA) induced avoidance test (performed in mice) for antagonistic activity after peroral administration of 0.02 mg/kg; details: route oral
[21] = molecular target: T1, Adenosine receptor A1 (Rattus norvegicus, UniProt P25099); assay: Tested for binding affinity against Adenosine A1 receptor from rat forebrain membranes, using N6-[3H]- cyclohexyladenosine as radioligand
T1 sequence (P25099 whole entry): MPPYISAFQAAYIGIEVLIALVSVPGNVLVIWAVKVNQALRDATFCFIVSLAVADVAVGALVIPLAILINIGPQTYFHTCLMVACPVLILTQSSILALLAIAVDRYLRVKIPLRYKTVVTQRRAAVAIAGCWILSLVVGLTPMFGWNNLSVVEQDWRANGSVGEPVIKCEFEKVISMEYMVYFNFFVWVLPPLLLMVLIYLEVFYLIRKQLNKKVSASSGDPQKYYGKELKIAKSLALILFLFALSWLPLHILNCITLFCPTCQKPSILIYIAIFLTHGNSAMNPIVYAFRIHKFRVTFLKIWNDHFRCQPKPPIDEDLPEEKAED

[22] = molecular target: T2, Adenosine receptor A1 (Cavia porcellus, UniProt P47745); assay: Binding affinity against Adenosine A1 receptor from guinea pig forebrain membranes by N6-[3H]- cyclohexyladenosine displacement.
T2 sequence (P47745 whole entry): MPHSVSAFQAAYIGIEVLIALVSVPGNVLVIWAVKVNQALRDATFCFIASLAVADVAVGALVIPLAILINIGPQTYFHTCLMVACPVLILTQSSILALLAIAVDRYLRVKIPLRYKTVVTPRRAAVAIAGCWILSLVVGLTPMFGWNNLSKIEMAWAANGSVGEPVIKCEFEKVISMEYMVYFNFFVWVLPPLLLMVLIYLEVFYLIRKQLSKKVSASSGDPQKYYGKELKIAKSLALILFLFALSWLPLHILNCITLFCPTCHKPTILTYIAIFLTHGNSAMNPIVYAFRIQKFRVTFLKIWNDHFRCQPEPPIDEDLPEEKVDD

[23] = molecular target: Adenosine A2 receptor (Rattus norvegicus, UniProt P29276+P30543); assay: Binding affinity at Adenosine A2 receptor from rat striatal membranes by N-[3H] ethyladenosin-5'- uronamide displacement.
[24] = system: Mus musculus; assay: Acquisition time in (R)-PIA) induced avoidance test (performed in mice) for antagonistic activity after peroral administration of 0.02 mg/kg; type: functional; details: route oral
[25] = system: Mus musculus; assay: Retention time in (R)-PIA) induced avoidance test (performed in mice) for antagonistic activity after peroral administration of 0.02 mg/kg; type: functional, organism-based; parameters: dose 0.02 mg/kg
[26] = system: Rattus norvegicus; assay: Retention time in Scopolamine induced avoidance test (performed in […]) for antagonistic activity after peroral administration of 1.25 mg/kg; type: functional, organism-based; parameters: dose 1.25 mg/kg
[27] = system: Rattus norvegicus; assay: Retention time in Scopolamine induced avoidance test (performed in rat) for antagonistic activity after peroral administration of 0.02 mg/kg; type: functional, organism-based; parameters: dose 0.02 mg/kg
[28] = system: Rattus norvegicus; assay: Retention time in Scopolamine induced avoidance test (performed in rat) for antagonistic activity after peroral administration of 5 mg/kg; type: functional, organism-based; parameters: dose 5 mg/kg

Compound	Acquisition time [1] [s]	Acquisition time [2] [s]	Acquisition time [3] [s]	Retention time [4]	Retention time [5] [s]	Retention time [6] [s]	Acquisition time [8] [s]	Acquisition time [10] [s]	Acquisition time [11] [s]	Acquisition time [12] [s]	Retention time [14] [s]	Retention time [15] [s]	Acquisition time [18] [s]	also measured
CCCn1c(=O)c2nc(C34CC5CC(CC(C5)C3)C4)[nH]c2n(CCC)c1=O	19.1	19.6	19.8	490 s	221	122	12.8	11	16.6	11.7	34.8	21.3	13.7	Retention time [7]: 302 s; Acquisition time [9]: 8.4 s; Retention time [13]: 16.3 s; Retention time [16]: 14.1 s; Retention time [17]: 35 s; Retention time [19]: 17.6 s; Acquisition time [20]: 10.1 s
CCCn1c(=O)c2nc(C34CC5CC(CC3C5)C4)[nH]c2n(CCC)c1=S	19.5	20.4	18.4	164 s and 173 s	230	124	30.5	32.2	22.2	24.9	164	113	17.3	Ki [21]: 0.19 nM; Ki [22]: 1.3 nM; Ki [23]: 380 nM; Acquisition time [24]: 17.5 s; Retention time [25]: 37 s; Retention time [26]: 149 s; Retention time [27]: 129 s; Retention time [28]: 159 s
